Source: patent US20250018046A1, “COMPOUNDS FOR TARGETING DEGRADATION OF IRAK4 PROTEINS” (BIOGEN MA INC, priority 2021, published 2025)

target: T1, IRAK4 (Homo sapiens, UniProt Q9NWZ3); assay: IRAK4 degradation assay using the HiBiT Method; assay type: cell-based; details: 293T cells expressing HiBiT-tagged IRAK4; 6-hour incubation; Nano-Glo HiBiT Lytic Assay luminescence
T1 construct: knocking-in a HiBiT fusion tag into the C-terminal of the IRAK4 gene in 293T cells; host or cells: 293T cells, knock-in of HiBiT at the endogenous IRAK4 locus
T1 sequence (Q9NWZ3 1-460): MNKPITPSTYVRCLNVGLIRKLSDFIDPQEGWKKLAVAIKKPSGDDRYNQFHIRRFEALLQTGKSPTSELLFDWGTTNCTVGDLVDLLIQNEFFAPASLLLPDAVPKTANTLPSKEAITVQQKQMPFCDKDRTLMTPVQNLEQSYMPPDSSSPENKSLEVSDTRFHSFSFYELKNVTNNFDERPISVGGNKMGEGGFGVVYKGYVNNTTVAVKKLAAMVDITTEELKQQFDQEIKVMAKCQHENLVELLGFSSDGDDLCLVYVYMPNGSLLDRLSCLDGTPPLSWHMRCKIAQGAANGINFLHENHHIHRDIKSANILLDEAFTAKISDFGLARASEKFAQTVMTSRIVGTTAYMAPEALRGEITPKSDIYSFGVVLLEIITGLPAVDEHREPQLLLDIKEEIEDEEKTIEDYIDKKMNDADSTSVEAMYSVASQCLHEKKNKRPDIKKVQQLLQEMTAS
Experimental: Selected compounds were tested in an IRAK4 degradation assay using the HiBiT Method.
Phenol red-free Dulbecco's modified Eagle medium (DMEM) and fetal bovine serum (FBS) were purchased from Gibco (Grand Island, NY, USA). The Nano-Glo© HiBiT Lytic Assay System was purchased from Promega (Madison, WI, USA). Cell culture flasks and 384-well microplates were acquired from VWR (Radnor, PA, USA). The 293T cell line was engineered by knocking-in a HiBiT fusion tag into the C-terminal of the IRAK4 gene in 293T cells (Synthego, Redwood City, CA, USA).
IRAK4 degradation was measured via the quantification of luminescent signals using the Nano-Glo© HiBiT Lytic Assay kit. Test compounds were added to 384-well plates in duplicate using an 11-point half-log dilution series, with the highest dose set at 10 mM. 293T cells expressing HiBiT-tagged IRAK4 were then added into 384-well plates at a cell density of 10,000 cells per well. The plates were kept at 37° C. with 5% CO2 for 6 hours. Cells that were treated only with DMSO served as the negative control; wells that contained only assay media served as the background control. After the 6-hour incubation, Nano-Glo® HiBiT Lytic Assay reagents were added to the cells. Luminescence was acquired using an EnVision® Multilabel Reader (PerkinElmer, Santa Clara, CA, USA).

Compared with CC(C)Oc1cc2nc(C3CCN(CC(=O)N4CCN(c5ccc(NC6CCC(=O)NC6=O)cc5)CC4)CC3)cn2cc1NC(=O)c1cccc(C(F)(F)F)n1 (stereo not drawn) [Example 27, N-[2-[1-[2-[4-[4-[(2,6-dioxo-3-piperidyl)amino]phenyl]piperazin-1-yl]-2-oxo-ethyl]-4-piperidyl]-7-isopropoxy-imidazo[1,2-a]pyridin-6-yl]-6-(trifluoromethyl)pyridine-2-carboxamide], CC(C)Oc1cc2nc(C3CCN(CC(=O)N4CCN(c5ccc(OC6CCC(=O)NC6=O)cc5)CC4)CC3)cn2cc1NC(=O)c1cccc(C(F)(F)F)n1 (stereo not drawn) [Example 28, N-[2-[1-[2-[4-[4-[(2,6-dioxo-3-piperidyl)oxy]phenyl]piperazin-1-yl]-2-oxo-ethyl]-4-piperidyl]-7-isopropoxy-imidazo[1,2-a]pyridin-6-yl]-6-(trifluoromethyl)pyridine-2-carboxamide] is lower in DC50: 100 to 500 nM for the first, 10 to 100 nM for the second.

Compared with CC(C)Oc1cc2nc(C3CCN(CC(=O)N4CCC(c5ccc(C6CCC(=O)NC6=O)cc5)CC4)CC3)cn2cc1NC(=O)c1cccc(C(F)(F)F)n1 (stereo not drawn) [Example 29, N-[2-[1-[2-[4-[4-(2,6-dioxo-3-piperidyl)phenyl]-1-piperidyl]-2-oxo-ethyl]-4-piperidyl]-7-isopropoxy-imidazo[1,2-a]pyridin-6-yl]-6-(trifluoromethyl)pyridine-2-carboxamide], CC(C)Oc1cc2nc(C3CCN(CCC(=O)N4CCC(c5ccc(C6CCC(=O)NC6=O)cc5)CC4)CC3)cn2cc1NC(=O)c1cccc(C(F)(F)F)n1 (stereo not drawn) [Example 32, N-[2-[1-[3-[4-[4-(2,6-dioxo-3-piperidyl)phenyl]-1-piperidyl]-3-oxo-propyl]-4-piperidyl]-7-isopropoxy-imidazo[1,2-a]pyridin-6-yl]-6-(trifluoromethyl)pyridine-2-carboxamide] is higher in DC50: 10 to 100 nM for the first, 100 to 500 nM for the second.

CC(C)Oc1cc2nc(C3CCN(CCC(=O)N4CCC(c5ccc(NC6CCC(=O)NC6=O)cc5)CC4)CC3)cn2cc1NC(=O)c1cccc(C(F)(F)F)n1 (stereo not drawn) [Example 30, N-[2-[1-[3-[4-[4-[(2,6-dioxo-3-piperidyl)amino]phenyl]-1-piperidyl]-3-oxo-propyl]-4-piperidyl]-7-isopropoxy-imidazo[1,2-a]pyridin-6-yl]-6-(trifluoromethyl)pyridine-2-carboxamide] and CC(C)Oc1cc2nc(C3CN(CCC(=O)N4CCC(c5ccc(NC6CCC(=O)NC6=O)cc5)CC4)C3)cn2cc1NC(=O)c1cccc(C(F)(F)F)n1 (stereo not drawn) [Example 34, N-[2-[1-[3-[4-[4-[(2,6-dioxo-3-piperidyl)amino]phenyl]-1-piperidyl]-3-oxo-propyl]azetidin-3-yl]-7-isopropoxy-imidazo[1,2-a]pyridin-6-yl]-6-(trifluoromethyl)pyridine-2-carboxamide] fall in the same range of DC50: 100 to 500 nM for the first, 100 to 500 nM for the second.

CC(C)Oc1cc2nc(C3CCN(CCC(=O)N4CCC(c5ccc(NC6CCC(=O)NC6=O)cc5F)CC4)CC3)cn2cc1NC(=O)c1cccc(C(F)(F)F)n1 (stereo not drawn) [Example 31, N-[2-[1-[3-[4-[4-[(2,6-dioxo-3-piperidyl)amino]-2-fluoro-phenyl]-1-piperidyl]-3-oxo-propyl]-4-piperidyl]-7-isopropoxy-imidazo[1,2-a]pyridin-6-yl]-6-(trifluoromethyl)pyridine-2-carboxamide] and CC(C)Oc1cc2nc(C3CCN(CCC(=O)N4CCN(c5ccc(OC6CCC(=O)NC6=O)cc5)CC4)CC3)cn2cc1NC(=O)c1cccc(C(F)(F)F)n1 (stereo not drawn) [Example 33, N-[2-[1-[3-[4-[4-[(2,6-dioxo-3-piperidyl)oxy]phenyl]piperazin-1-yl]-3-oxo-propyl]-4-piperidyl]-7-isopropoxy-imidazo[1,2-a]pyridin-6-yl]-6-(trifluoromethyl)pyridine-2-carboxamide] fall in the same range of DC50: 100 to 500 nM for the first, 100 to 500 nM for the second.

CC(C)Oc1cc2nc(C3CCC(CN4CCC(c5ccc(C6CCC(=O)NC6=O)cc5)CC4)CC3)cn2cc1NC(=O)c1cccc(C(F)(F)F)n1 (stereo not drawn) [Example 35, N-[2-[4-[[4-[4-(2,6-dioxo-3-piperidyl)phenyl]-1-piperidyl]methyl]cyclohexyl]-7-isopropoxy-imidazo[1,2-a]pyridin-6-yl]-6-(trifluoromethyl)pyridine-2-carboxamide] gave a DC50 of 100 to 500 nM.
